{
  "source": "patent US20250388602A1",
  "about": "(Genase Therapeutics B.V., priority 2022, published 2025)",
  "key": {"CYP2C8": {"molecular_target": "CYP2C8 (Homo sapiens (Human), UniProt P10632)", "sequence (P10632 whole entry)": "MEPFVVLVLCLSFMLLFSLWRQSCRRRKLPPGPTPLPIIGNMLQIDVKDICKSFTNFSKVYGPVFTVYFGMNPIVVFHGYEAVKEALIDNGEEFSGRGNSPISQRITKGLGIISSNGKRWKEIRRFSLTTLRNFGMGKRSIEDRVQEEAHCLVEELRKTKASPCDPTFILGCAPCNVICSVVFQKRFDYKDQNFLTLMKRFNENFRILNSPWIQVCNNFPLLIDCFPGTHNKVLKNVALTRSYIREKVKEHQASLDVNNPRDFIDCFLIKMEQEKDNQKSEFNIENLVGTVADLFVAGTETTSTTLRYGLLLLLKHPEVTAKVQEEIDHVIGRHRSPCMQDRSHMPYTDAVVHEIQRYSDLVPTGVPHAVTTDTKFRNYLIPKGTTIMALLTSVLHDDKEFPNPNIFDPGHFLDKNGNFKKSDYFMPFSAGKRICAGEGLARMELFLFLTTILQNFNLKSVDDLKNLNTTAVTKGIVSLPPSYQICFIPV", "experiment": "biochemical", "format": "in vitro ADME", "protocol": "(§1) CYP inhibition: Co-incubation of compounds with P450 enzyme-selective substrates was performed using pooled human liver microsomes (Cat. No. H0610, Xenotech), to determine their potential to cause drug-drug interactions. The assay was performed in duplicate. The formation of acetaminophen, 7′-hydoxycoumarin, hydrobupropion, N-desethylamodiaquine, 4′-hydroxydiclofenac, 4′-hydroxymephenytoin, 1′-hydroxybufuralol, 6″-hydroxychlorzoxazone were quantified as markers for CYP1A2, CYP2A6, […], CYP2C8, CYP2C9, CYP2C19, […], CYP2E1, respectively. CYP3A4 inhibition was measured using 2 substrates, measuring the formation of […] (3A4-T), and 1′-hydroxymidazolam (3A4-M). The incubation was carried out in 96 deep well plates each well containing: 179 μL of the master solution (0.2 mg/mL microsomes plus CYP substrate (see below for final substrate concentration and incubation time for the different CYP assays)) in 100 mM phosphate buffer and 1 μL of the compound working solution or vehicle. The final concentrations of the compounds in the assay was 30 μM when using a single dose or 0.1, 0.3, 1, 3, 10 and 30 μM for a dose response.\n(§2) The incubation plate was placed into a water bath and pre-warmed at 37° C. for 5 minutes before the reactions were started by the addition of 20 μL of 10 mM NADPH solution and incubated at 37° C. for the time listed above. The reaction was stopped by addition of 1.5 volumes (300 μL) of cold ACN containing 3% formic acid and 200 nM tolbutamide, 200 nM aprozolam and 200 nM labalol. The plate was centrifuged at 3,220 g for 50 minutes and then 200 μL of the supernatant was transferred to the analysis plate for LC/MS/MS analysis. The respective metabolite formation from each probe substrate was compared with that observed for the solvent control incubations."}, "CYP2A6": {"molecular_target": "CYP2A6 (Homo sapiens (Human), UniProt P11509)", "sequence (P11509 whole entry)": "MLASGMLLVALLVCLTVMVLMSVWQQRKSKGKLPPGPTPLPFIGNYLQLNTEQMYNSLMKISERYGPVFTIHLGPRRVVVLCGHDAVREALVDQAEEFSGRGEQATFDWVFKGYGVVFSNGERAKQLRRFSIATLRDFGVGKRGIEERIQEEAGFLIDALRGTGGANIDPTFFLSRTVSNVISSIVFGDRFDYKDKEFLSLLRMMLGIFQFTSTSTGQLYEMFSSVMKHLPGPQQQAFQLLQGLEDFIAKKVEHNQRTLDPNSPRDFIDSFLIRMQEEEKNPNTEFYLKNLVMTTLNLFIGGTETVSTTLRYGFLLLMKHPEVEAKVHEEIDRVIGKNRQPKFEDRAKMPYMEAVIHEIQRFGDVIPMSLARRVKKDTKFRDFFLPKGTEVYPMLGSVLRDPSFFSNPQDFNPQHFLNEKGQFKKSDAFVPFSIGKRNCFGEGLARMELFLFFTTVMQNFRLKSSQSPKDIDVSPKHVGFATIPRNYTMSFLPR", "experiment": "biochemical", "format": "in vitro ADME", "protocol": "as §1, §2"}, "CYP2B6": {"molecular_target": "CYP2B6 (Homo sapiens (Human), UniProt P20813)", "sequence (P20813 whole entry)": "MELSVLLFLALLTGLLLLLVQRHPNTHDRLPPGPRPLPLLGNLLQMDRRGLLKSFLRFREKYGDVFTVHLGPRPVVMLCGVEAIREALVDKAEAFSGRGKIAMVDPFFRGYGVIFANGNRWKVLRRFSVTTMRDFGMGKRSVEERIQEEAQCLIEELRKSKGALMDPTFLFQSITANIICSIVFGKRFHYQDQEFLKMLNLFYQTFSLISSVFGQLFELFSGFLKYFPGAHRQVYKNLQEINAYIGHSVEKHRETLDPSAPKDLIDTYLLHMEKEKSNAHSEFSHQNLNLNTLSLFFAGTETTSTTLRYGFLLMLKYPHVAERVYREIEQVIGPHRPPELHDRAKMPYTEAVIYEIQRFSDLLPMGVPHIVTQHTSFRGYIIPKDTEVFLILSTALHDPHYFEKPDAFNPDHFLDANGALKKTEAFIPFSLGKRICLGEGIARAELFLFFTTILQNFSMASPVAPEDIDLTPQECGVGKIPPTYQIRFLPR", "experiment": "biochemical", "format": "in vitro ADME", "protocol": "as §1, §2"}, "CYP2C19": {"molecular_target": "CYP2C19 (Homo sapiens (Human), UniProt P33261)", "sequence (P33261 whole entry)": "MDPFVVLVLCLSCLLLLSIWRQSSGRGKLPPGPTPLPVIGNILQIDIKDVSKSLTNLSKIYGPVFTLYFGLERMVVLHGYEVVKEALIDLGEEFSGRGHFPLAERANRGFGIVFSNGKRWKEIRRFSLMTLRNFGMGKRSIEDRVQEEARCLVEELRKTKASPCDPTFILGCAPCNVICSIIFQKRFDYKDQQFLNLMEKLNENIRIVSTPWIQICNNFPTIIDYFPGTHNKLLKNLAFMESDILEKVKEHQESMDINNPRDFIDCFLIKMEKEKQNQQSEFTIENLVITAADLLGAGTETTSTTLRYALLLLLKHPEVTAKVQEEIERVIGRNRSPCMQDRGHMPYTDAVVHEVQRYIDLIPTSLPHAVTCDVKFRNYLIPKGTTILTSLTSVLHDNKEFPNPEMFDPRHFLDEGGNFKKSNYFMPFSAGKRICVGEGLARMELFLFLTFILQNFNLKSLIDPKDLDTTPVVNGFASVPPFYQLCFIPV", "experiment": "biochemical", "format": "in vitro ADME", "protocol": "as §1, §2"}, "CYP3A4": {"molecular_target": "CYP3A4 (Homo sapiens (Human), UniProt P08684)", "sequence (P08684 whole entry)": "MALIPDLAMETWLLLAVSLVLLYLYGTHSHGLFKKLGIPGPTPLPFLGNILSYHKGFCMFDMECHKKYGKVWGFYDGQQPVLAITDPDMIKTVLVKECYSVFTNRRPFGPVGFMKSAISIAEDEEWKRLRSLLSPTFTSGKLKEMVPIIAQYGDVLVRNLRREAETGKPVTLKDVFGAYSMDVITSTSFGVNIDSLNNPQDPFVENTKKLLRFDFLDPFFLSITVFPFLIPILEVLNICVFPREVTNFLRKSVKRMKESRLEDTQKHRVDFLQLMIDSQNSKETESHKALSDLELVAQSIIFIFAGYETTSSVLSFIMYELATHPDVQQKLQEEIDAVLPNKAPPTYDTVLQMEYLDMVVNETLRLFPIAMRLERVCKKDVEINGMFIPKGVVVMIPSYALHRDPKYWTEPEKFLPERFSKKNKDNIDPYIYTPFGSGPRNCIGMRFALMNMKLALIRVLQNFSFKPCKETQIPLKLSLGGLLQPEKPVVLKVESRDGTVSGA", "experiment": "biochemical", "format": "in vitro ADME", "protocol": "as §1, §2"}, "CYP2E1": {"molecular_target": "CYP2E1 (Homo sapiens (Human), UniProt P05181)", "sequence (P05181 whole entry)": "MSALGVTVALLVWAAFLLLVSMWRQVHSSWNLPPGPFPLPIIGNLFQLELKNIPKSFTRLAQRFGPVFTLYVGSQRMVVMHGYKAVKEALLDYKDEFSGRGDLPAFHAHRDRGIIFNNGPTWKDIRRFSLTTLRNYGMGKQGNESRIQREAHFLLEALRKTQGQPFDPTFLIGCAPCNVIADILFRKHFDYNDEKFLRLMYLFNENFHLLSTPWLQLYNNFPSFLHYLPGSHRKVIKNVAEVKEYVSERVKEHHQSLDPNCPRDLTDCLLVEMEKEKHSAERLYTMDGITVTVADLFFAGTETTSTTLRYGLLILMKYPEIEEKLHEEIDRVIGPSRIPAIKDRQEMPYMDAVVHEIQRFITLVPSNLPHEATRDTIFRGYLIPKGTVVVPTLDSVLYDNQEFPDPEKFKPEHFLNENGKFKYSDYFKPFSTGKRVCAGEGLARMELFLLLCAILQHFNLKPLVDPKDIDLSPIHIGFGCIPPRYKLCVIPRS", "experiment": "biochemical", "format": "in vitro ADME", "protocol": "as §1, §2"}, "CYP2D6": {"molecular_target": "CYP2D6 (Homo sapiens (Human), UniProt P10635)", "sequence (P10635 whole entry)": "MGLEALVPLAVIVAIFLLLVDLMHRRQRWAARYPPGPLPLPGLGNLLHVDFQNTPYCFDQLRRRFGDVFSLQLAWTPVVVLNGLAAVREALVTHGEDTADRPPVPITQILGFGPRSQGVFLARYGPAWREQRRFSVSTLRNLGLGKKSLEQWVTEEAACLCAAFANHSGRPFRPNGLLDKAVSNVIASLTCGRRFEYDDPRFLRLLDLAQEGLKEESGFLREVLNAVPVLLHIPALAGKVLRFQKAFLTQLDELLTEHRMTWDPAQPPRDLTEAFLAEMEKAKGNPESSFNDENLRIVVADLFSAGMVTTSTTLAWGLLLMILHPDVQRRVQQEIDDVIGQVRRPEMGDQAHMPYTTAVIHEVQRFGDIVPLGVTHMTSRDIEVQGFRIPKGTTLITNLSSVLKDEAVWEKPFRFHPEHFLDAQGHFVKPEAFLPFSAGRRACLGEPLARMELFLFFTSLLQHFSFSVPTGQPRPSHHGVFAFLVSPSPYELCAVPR", "experiment": "biochemical", "format": "in vitro ADME", "protocol": "as §1, §2"}, "CYP2C9": {"molecular_target": "CYP2C9 (Homo sapiens (Human), UniProt P11712)", "sequence (P11712 whole entry)": "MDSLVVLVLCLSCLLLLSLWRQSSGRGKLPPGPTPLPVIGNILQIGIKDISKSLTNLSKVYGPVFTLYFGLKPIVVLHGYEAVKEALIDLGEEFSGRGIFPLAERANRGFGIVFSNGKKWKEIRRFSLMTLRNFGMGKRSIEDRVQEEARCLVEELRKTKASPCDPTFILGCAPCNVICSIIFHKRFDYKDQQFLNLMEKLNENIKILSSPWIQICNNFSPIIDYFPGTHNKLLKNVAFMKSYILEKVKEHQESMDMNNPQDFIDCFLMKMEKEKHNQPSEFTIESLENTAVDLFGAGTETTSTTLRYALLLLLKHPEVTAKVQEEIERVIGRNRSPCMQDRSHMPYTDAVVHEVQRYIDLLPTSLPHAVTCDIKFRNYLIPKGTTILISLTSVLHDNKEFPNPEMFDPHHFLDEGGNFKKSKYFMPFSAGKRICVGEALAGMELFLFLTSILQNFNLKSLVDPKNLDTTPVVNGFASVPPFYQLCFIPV", "experiment": "biochemical", "format": "in vitro ADME", "protocol": "as §1, §2"}, "MOLM-13 cells": {"system": "MOLM-13 cells", "experiment": "MOLM-13 cell viability (Assay B), Cell Titer-Glo", "format": "cell-based", "in_short": "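Cells at 1,000 per well in RPMI/10% FBS were exposed to compound (10E-5 to 6E-12 M), with or without 100 μM uridine, for 72 h. Viability was read by CellTiter-Glo luminescence. Duplicates were run, and potency was taken from two independent experiments.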"}, "[1]": {"experiment": "cytotoxicity in mock-infected A549 cells (MTS)", "format": "cell-based", "details": "human", "description": "The anti-ZIKV and anti-DENV-2 activity in A549 cells was determined using a tetrazolium-based colorimetric cytopathic effect (CPE) reduction assay. […] A549 cells (1.5×10^4 cells in 100 μL cell culture medium) were seeded in 96-well flat bottom plates (TPP, Trasadingen, Switzerland) and incubated overnight to allow the cells to grow to confluency. Drug dilutions were prepared in culture medium where FCS concentration was decreased to 2% and threefold diluted in the plates (in duplicate). […] Three hours after MTS incubation, virus was inactivated using 0.5% Triton X-100 (Thermo Fisher Scientific, Waltham, MA, USA) and the absorbance was then recorded at 490 nm with a 96-well plate reader and compared with four cell control replicates (cells without virus and drugs) and four virus control wells (cells with virus but without drug). […] Absorbance was recorded using the VersaMax ELISA™ microplate reader (Molecular Devices) and analyzed with the Softmax Pro® software (Molecular Devices, Version 4.0). […]"}, "ZIKV": {"system": "ZIKV", "experiment": "anti-ZIKV CPE reduction assay in A549 cells (MTS)", "format": "cell-based, ZIKV MR766 prototype strain", "protocol": "The lung cancer epithelial cell line A549 was obtained from the American Type Culture Collection (ATCC; Rockville, MD, USA) and cultured in MEM medium (Gibco BRL, Gaithersburg, MD, USA) with 10% fetal calf serum (FCS; Gibco BRL), 2 mM L-glutamine (Gibco BRL) and 0.075% sodium bicarbonate (Gibco BRL).\nThe ZIKV MR766 prototype strain and the DENV-2 laboratory-adapted New Guinea C strain were obtained from ATCC and stocks were grown in the C6/36 mosquito cell line (ATCC). Viral stock titers were determined using plaque assay in BHK-21 cells (ATCC).\nThe anti-ZIKV and anti-DENV-2 activity in A549 cells was determined using a tetrazolium-based colorimetric cytopathic effect (CPE) reduction assay. This assay has been described in detail before (Virology. 2021; doi.org/10.1016/j.virol.2021.07.003). […] Three hours after MTS incubation, virus was inactivated using 0.5% Triton X-100 (Thermo Fisher Scientific, Waltham, MA, USA) and the absorbance was then recorded at 490 nm with a 96-well plate reader and compared with four cell control replicates (cells without virus and drugs) and four virus control wells (cells with virus but without drug). […] Absorbance was recorded using the VersaMax ELISA™ microplate reader (Molecular Devices) and analyzed with the Softmax Pro® software (Molecular Devices, Version 4.0). […]"}},
  "data": [
    {"smiles": "COc1ccc(F)c(-n2ncc3c2COC[C@H]3NC(=O)c2ncn3c2CCCC3)c1Cl", "note": "(single isomer, unassigned) [Ex-9]", "values": [
      {"measurement": "IC50", "setting": "CYP2C8", "value": "> 30", "unit": "µM"},
      {"measurement": "IC50", "setting": "CYP2A6", "value": "> 30", "unit": "µM"},
      {"measurement": "IC50", "setting": "CYP2B6", "value": "> 30", "unit": "µM"},
      {"measurement": "IC50", "setting": "CYP2C19", "value": "> 30", "unit": "µM"},
      {"measurement": "IC50", "setting": "CYP3A4; IC50 CYP3A4-M, substrate Midozolam", "value": "> 30", "unit": "µM"},
      {"measurement": "IC50", "setting": "CYP3A4; IC50 CYP3A4-T, substrate Testosterone", "value": "> 30", "unit": "µM"},
      {"measurement": "IC50", "setting": "CYP2E1", "value": "> 30", "unit": "µM"},
      {"measurement": "IC50", "setting": "CYP2D6", "value": "> 30", "unit": "µM"},
      {"measurement": "IC50", "setting": "CYP2C9", "value": "> 30", "unit": "µM"},
      {"measurement": "IC50", "setting": "MOLM-13 cells; Homo sapiens, MOLM-13, 72 hours, bins ≥10 nM-<100 nM and <10 nM, read-out: IC50 MOLM13 inhibition activity", "value": "< 0.01", "unit": "µM"},
      {"measurement": "MOLM13 cell growth and/or viability (FIG. 2)", "setting": "MOLM-13 cells; absence of uridine", "value": "reduce MOLM13 cell growth and/or viability"},
      {"measurement": "effect on MOLM13 cell growth and/or viability on addition of excess uridine (FIG. 2)", "setting": "MOLM-13 cells; presence of 100 μM uridine", "value": "largely prevented"},
      {"measurement": "CC50", "setting": "[1]", "value": "3.65 ± 0.1", "unit": "µM"},
      {"measurement": "antiviral activity against ZIKV", "setting": "ZIKV", "value": "demonstrating antiviral activity"},
      {"measurement": "IC50", "setting": "ZIKV; Zika virus, 72 h, MOI 1, 3 d of infection", "value": "0.0093 ± 0.002", "unit": "µM"}
    ]}
  ]
}
